What was measured:
IRE1 [1] = test: Xbp-1 splicing assay (RT-PCR) in HEK-293T cells; assay type: cell-based, human; conditions: 1 mM DTT, 2 h
[2] = test system: Integrated Stress Response; test: UL148-GFP visual probe for ISR inhibition in living cells; assay type: cell-based; conditions: ARPE-19 cells, UL148-GFP induced 18 hours with 100 ng/mL doxycycline hyclate; 200 nM ISRIB in FIG. 2B
Text: The disclosed technology is based on UL148, a viral endoplasmic reticulum (ER)-resident protein, which influences the expression of a viral glycoprotein complex required for cell entry. UL148 activates the Unfolded Protein Response (UPR), resulting in stress-regulated translation of ISR mRNAs such as ATF4. ISR/UPR activation by UL148 causes the formation of large membranous structures from the ER, at which UL148 itself accumulates. […] Other fluorescent proteins may include Allophycocyanin, Brainbow, Cameleon, FMN-binding fluorescent protein, Glutamate-sensitive fluorescent reporter, MCherry, Phycoerythrin, Red fluorescent protein, RoGFP, SmURFP, Synapto-pHluorin, and Yellow fluorescent protein. […] Instead, treatment with an ISR-inhibitor (e.g., ISRIB) causes UL148-GFP to be evenly distributed across the ER such that the GFP staining is uniform and reticular. Therefore, the simple task of determining whether GFP signal is present and whether it is uniform or punctate provides a facile read-out that can be automated to enable high throughput screening for novel small molecule inhibitors that inhibit the ISR.
ARPE-19 epithelial cells carrying a doxycycline inducible gene expression cassette encoding UL148-GFP were treated for 18 hours with 100 ng/mL doxycycline hyclate to induce UL148-GFP expression. In panel A, (FIG. 2A) UL148-GFP was induced in the absence of ISRIB. […]

PERK = test: Western blot for PERK activation in stably transduced ARPE-19 cells; assay type: cell-based; conditions: 200 nM Tg, 4 h
IRE1 [3] = test: Western blot for phospho-IRE1 (Ser724) in fibroblasts; assay type: cell-based, human; conditions: Tg-treated fibroblast lysates vs mock-treated, noninfected cells
[4] = test system: protein synthesis (mRNA translation) in ARPE-19 cells; test: Metabolic labeling (35S Met/Cys incorporation) in i148HA and i159HA ARPE-19 cells; assay type: cell-based; conditions: 24 h Dox induction, 30 min 35S Met/Cys pulse, phosphorimager analysis
Experimental: Having isolated stably transduced ARPE-19 cell populations, the inventors confirmed that that anti-HA immunoreactive polypeptides of the expected size for UL148 (i148^HA) or Rh159 (i159^HA) were induced upon treatment with 100 ng/ml doxycycline (Dox). Furthermore, expression of neither protein caused any overt reduction in cell viability or number, as measured by trypan blue exclusion following 24 h of Dox induction. The inventors therefore concluded that the i148^HA and i159^HA ARPE-19 cells were suitable to address whether UL148 might affect rates of mRNA translation in metabolic labeling studies. For these experiments, i148^HA and i159^HA cells were induced (or mock induced) for transgene expression for 24 h and then incubated in the presence of ^35S-labeled methionine and cysteine for 30 min. In parallel, labeling was also carried out using i159^HA cells that were incubated in the presence of either thapsigargin (Tg) or carrier alone, so as to provide positive and negative controls, respectively, for UPR induction.
Metabolic labeling. i159^HA or i148^HA cells were seeded at 2×10^5 cells per well in a 24-well cluster plate in Gibco Opti-MEM reduced serum medium (Thermo Fisher) supplemented with 2.5% tetracycline (Tet)-free FBS (Clontech 631101). […] The relative signal per lane was calculated using Bio-Rad 1-D analysis software by reading the signal volume (counts·mm^2) in each lane. […]

O[C@H](CS)[C@H](O)CS (racemic) [DTT, dithiothreitol]
splicing of the 26-nt intron from Xbp-1 mRNA (IRE1 [1]): spliced from nearly all the Xbp-1 mRNA

O=C(COc1ccc(Cl)cc1)NC1CCC(NC(=O)COc2ccc(Cl)cc2)CC1 (centres unmarked) [ISRIB]
formation of UL148 structures [2]: completely blocks the formation of UL148 structures

C/C=C(/C)C(=O)O[C@H]1C(C)=C2[C@H]([C@@H]1OC(=O)CCCCCCC)[C@@](C)(OC(C)=O)C[C@H](OC(=O)CCC)[C@@]1(O)[C@H]2OC(=O)[C@@]1(C)O [Tg, thapsigargin]
decreased mobility of the anti-PERK immunoreactive band (PERK autophosphorylation) (PERK): readily observed | phospho-IRE1 signal (IRE1 [3]): robust phospho-IRE1 signal

B1: UL148: viral ER-resident glycoprotein from human cytomegalovirus, ectopically expressed with a C-terminal HA tag (protein, UniProt F5H8Q3 21-316, looked up)
Membrane protein UL148: SRDYVHVRLLSYRGDPLVFKHTFSGVRRPFTELGWAACRDWDSMHCTPFWSTDLEQMTDSVRRYSTVSPGKEVTLQLHGNQTVQPSFLSFTCRLQLEPVVENVGLYVAYVVNDGERPQQFFTPQVDVVRFALYLETLSRIVEPLESGRLTVEFDTPDLALAPDLVSSLFVAGHGETDFYMNWTLRRSQTHYLEEMALQVEILKPRGVRHRAIIHHPKLQPGVGLWIDFCVYRYNARLTRGYVRYTLSPKARLPAKAEGWLVSLDRFIVQYLNTLLITMMAAIWARVLITYLVSRRR
modifications: C-terminal HA tag
decrease in protein synthesis compared to carrier-alone control [4]: ~50%
